# Patent publication US8178506B2, “Oligomeric compounds and compositions for use in modulation of small non-coding RNAs” (Regulus Therapeutics Inc., priority 2003, dated 2012)
# In the oligonucleotide strings, read from the 5' end, every base follows the letter of its sugar. An asterisk marks phosphorothioate; unmarked linkages are phosphodiester. Other units and linkages are bracketed, terminal groups are in braces. A string of capitals states the bases alone. e = 2'-O-(2-methoxyethyl) (MOE); [5mC] = 5-methylcytosine; d = 2'-deoxy (DNA)
# How the values were obtained:
# HeLa cells = assay: Cell cycle assay in HeLa cells; format: cell-based, human; details: for % cells in cell cycle phase G1 / % cells in cell cycle phase G2/M / % cells in cell cycle phase S / % cells in cell cycle phase aneuploid / % cells in cell cycle phase subG1 / % cells aneuploid / % cells in cell cycle phase: G1 / % cells in cell cycle phase: G2/M / % cells in cell cycle phase: S / % cells in cell cycle phase: aneuploid / % cells in cell cycle phase: subG1: HeLa cells; for % cells in cell cycle phase: G1 / % cells in cell cycle phase: G2/M / % cells in cell cycle phase: S / % cells in cell cycle phase: aneuploid / % cells in cell cycle phase: subG1: 48 hours after treatment, relative to untreated control (UTC=100)
# T47D cells = assay: Cell cycle assay in T47D cells; format: cell-based, human; details: 150 nM, 48 hours, relative to untreated control
# Procedure: (§1) BJ cells were routinely cultured in MEM high glucose with 2 mM L-glutamine and Earle's BSS adjusted to contain 1.5 g/L sodium bicarbonate and supplemented with 10% fetal bovine serum, 0.1 mM non-essential amino acids and 1.0 mM sodium pyruvate (all media and supplements from Invitrogen Life Technologies, Carlsbad, Calif.). B16-F10 cells were routinely cultured in DMEM high glucose (Invitrogen Life Technologies, Carlsbad, Calif.) supplemented with 10% fetal bovine serum (Invitrogen Life Technologies, Carlsbad, Calif.). T47D cells were cultured in DMEM High glucose media (Invitrogen Life Technologies, Carlsbad, Calif.) supplemented with 10% fetal bovine serum. […] Cells were plated on collagen-coated 24-well plates (Falcon-Primaria #3047, BD Biosciences, Bedford, Mass.) at approximately 50,000 cells per well and allowed to attach to wells overnight.
# (§2) In further studies, additional cell lines were treated with oligomeric compounds targeted against miRNAs to assess the effects of each oligomeric compound on cell cycling. BJ, B16, T47D, and HeLa cells were cultured and transfected as described above. […] T47Dp53 cells are T47D cells that have been transfected with and selected for maintenance of a plasmid that expresses a wildtype copy of the p53 gene (for example, pCMV-p53; Clontech, Palo Alto, Calif.), using standard laboratory procedures. BJ cells were treated with 200 nM of each oligomeric compound, and T47D, T47Dp53, HeLa, and B16 cells were treated with 150 nM of each oligomeric compound. The human foreskin fibroblast BJ cell line represents a non-cancer cell line, while HeLa, T47D, T47Dp53 cells and the mouse melanoma cell line B16-F10 represent cancerous cell lines. For comparison, oligomeric compounds ISIS 183891 (SEQ ID NO: 847) and ISIS 285717 ([…]; herein incorporated as SEQ ID NO: 857), both targeting the kinesin-like 1/Eg5 mRNA, involved in cell cycling, were used as positive controls. The random-mer ISIS 29848 was used as a negative control. Additionally, the oligomeric compounds ISIS Number 25690 ([…]; herein incorporated as SEQ ID NO: 858) and ISIS Number 25691 ([…]; herein incorporated as SEQ ID NO: 859), targeted to nucleotides 3051-3070 and 3085-3104, respectively, of the mRNA encoding the Drosha RNase III (GenBank Accession NM_013235.2, incorporated herein as SEQ ID NO: 860) were also tested. ISIS Number 25690 and ISIS Number 25691 are 5-10-52′-MOE gapmer compounds, 20 nucleotides in length, with phosphorothioate internucleoside linkages throughout the oligomeric compound. All cytidine residues are 5-methylcytidines. Transfections were performed using the methods described herein. Cells were prepared for flow cytometry 48-hours after oligonucleotide treatment. Results of these studies are shown in Table 35, where data are expressed as percentage of cells in each phase relative to the untreated control cells in that phase.
# BJ cells = assay: Cell cycle assay in BJ cells; format: cell-based, human; details: 200 nM, 48 hours; for % cells in cell cycle phase G1 / % cells in cell cycle phase G2/M / % cells in cell cycle phase S / % cells in cell cycle phase aneuploid / % cells in cell cycle phase subG1: relative to untreated control
# Procedure: as §1, §2
# T47Dp53 cells = assay: Cell cycle assay in T47Dp53 cells; format: cell-based, human; details: 150 nM, 48 hours; for % cells in cell cycle phase G1 / % cells in cell cycle phase G2/M / % cells in cell cycle phase S / % cells in cell cycle phase aneuploid / % cells in cell cycle phase subG1: relative to untreated control
# Procedure: as §2
# B16-F10 cells = assay: Cell cycle assay in B16-F10 cells; format: cell-based, mouse; details: 150 nM, 48 hours, relative to untreated control
# Procedure: as §1, §2
# HuVECs = assay: Endothelial tube formation assay in HuVECs; details: 75 nM
# [1] = system: preadipocytes / differentiating adipocytes; assay: Adipocyte differentiation assay, markers taken together; format: cell-based, human; details: differentiating adipocytes, % of UTC (Table 55)
# Procedure: Oligomeric compounds of the invention are tested for their effects on preadipocyte differentiation. […] For the other adipocyte differentiation markers assayed, an oligomeric compound targeted to PPAR-γ, also known to inhibit adipocyte differentiation, may be used as a positive control.
# Cells are transfected as described herein. […] Untreated control cells receive LIPOFECTIN™ only.
# After the cells have reach confluence (approximately three days), they are exposed for an additional three days to differentiation medium (Zen-Bio, Inc., Research Triangle Park, N.C.) containing a PPAR-γ agonist, IBMX, dexamethasone, and insulin. Cells are then fed adipocyte medium (Zen-Bio, Inc.), which is replaced at 2 or 3 day intervals.
# For assaying adipocyte differentiation, expression of the four hallmark genes, HSL, aP2, Glut4, and PPARγ, as well as triglyceride (TG) accumulation and leptin secretion were measured in adipocytes transfected with the uniform 2′-MOE phosphorothioate (PS) oligomeric compounds previously described. Cells are lysed on day nine post-transfection, in a guanadinium-containing buffer and total RNA is harvested. Real-time PCR is performed (Applied Biosystems, Prism 7700) on the total RNA using the following primer/probe sets for the adipocyte differentiation hallmark genes: (aP2): forward 5′-GGTGGTGGAATGCGTCATG-3′ (SEQ ID NO: 746), reverse 5′-[…]-3′ (SEQ ID NO: 747), probe 5′-FAM-[…]-TAMRA-3′ (SEQ ID NO: 748); (Glut4): forward 5′-GGCCTCCGCAGGTTCTG-3′ (SEQ ID NO: 749), reverse 5′-[…]-3′ (SEQ ID NO: 750), probe 5′-FAM-[…]-TAMRA-3′ (SEQ ID NO: 751); (HSL): forward 5′-ACCTGCGCACAATGACACA-3′ (SEQ ID NO: 752), reverse 5′-[…]-3′ (SEQ ID NO: 753), probe 5′-FAM-[…]-TAMRA-3′ (SEQ ID NO: 754); (PPAR-γ): forward 5′-[…]-3′ (SEQ ID NO: 755), reverse 5′-[…]-3′ (SEQ ID NO: 756), probe 5′-FAM-[…]-TAMRA-3′ (SEQ ID NO: 757). The amount of total RNA in each sample is determined using a Ribogreen Assay (Molecular Probes, Eugene, Oreg.), and expression levels of the adipocyte differentiation hallmark genes were normalized to total RNA. Leptin protein and triglyceride levels as well as mRNA levels for each of the four adipocyte differentiation hallmark genes are expressed relative to control levels (control=treatment with ISIS-29848 (SEQ ID NO: 737)).
# In some embodiments, differentiating adipocytes were treated with uniform 2′-MOE phosphorothioate oligomeric compounds according to the methods described above, and the expression of the four hallmark genes, HSL, aP2, Glut4, and PPARγ, as well as triglyceride (TG) accumulation were measured. […] Undifferentiated adipocytes were also compared as a negative control. […] The effects of TNF-α, also known to inhibit adipocyte differentiation, were also measured.
# [2] = 150 nM, 48 hours, relative to untreated control
# [3] = 150 nM oligomeric compound, 24 hours, relative to untreated control (UTC = 100)
Substance,% cells in cell cycle phase G1 (HeLa cells; [2]),% cells in cell cycle phase G2/M (HeLa cells; [2]),% cells in cell cycle phase S (HeLa cells; [2]),% cells in cell cycle phase aneuploid (HeLa cells; [2]),% cells in cell cycle phase subG1 (HeLa cells; [2]),% cells in cell cycle phase G1 (T47D cells),% cells in cell cycle phase G2/M (T47D cells),% cells in cell cycle phase S (T47D cells),% cells in cell cycle phase aneuploid (T47D cells),% cells in cell cycle phase subG1 (T47D cells),% cells in cell cycle phase G1 (BJ cells),% cells in cell cycle phase G2/M (BJ cells),% cells in cell cycle phase S (BJ cells),% cells in cell cycle phase aneuploid (BJ cells),% cells in cell cycle phase subG1 (BJ cells),% cells in cell cycle phase G1 (B16-F10 cells),% cells in cell cycle phase G2/M (B16-F10 cells),% cells in cell cycle phase S (B16-F10 cells),% cells in cell cycle phase aneuploid (B16-F10 cells),% cells in cell cycle phase subG1 (B16-F10 cells),other results
25691 (antisense eG*e[5mC]*e[5mC]*eA*eA*dG*dG*d[5mC]*dG*dT*dG*dA*d[5mC]*dA*dT*eG*eA*eT*eA*eT) [compound 25691],53%,113%,141%,203%,881%,94%,104%,104%,203%,125%,94%,125%,116%,209%,183%,116%,99%,83%,105%,316%,% cells in cell cycle phase G1 (T47Dp53 cells): 130%; % cells in cell cycle phase G2/M (T47Dp53 cells): 93%; % cells in cell cycle phase S (T47Dp53 cells): 66%; % cells in cell cycle phase aneuploid (T47Dp53 cells): 95%; % cells in cell cycle phase subG1 (T47Dp53 cells): 212%
328744 (antisense e[5mC]*eG*eG*eA*eT*d[5mC]*d[5mC]*dT*dG*dT*dT*dA*d[5mC]*d[5mC]*dT*e[5mC]*eA*e[5mC]*e[5mC]*eA) [compound 328744],53%,213%,110%,178%,1057%,90%,118%,87%,191%,85%,94%,127%,111%,158%,125%,108%,110%,87%,115%,153%,% cells aneuploid (HeLa cells; [3]): 111%; % cells in cell cycle phase G1 (HeLa cells; [3]): 31%; % cells in cell cycle phase G2/M (HeLa cells; [3]): 167%; % cells in cell cycle phase S (HeLa cells; [3]): 108%; % cells in cell cycle phase subG1 (HeLa cells; [3]): 229%; % cells in cell cycle phase: G1 (HeLa cells; 150 nM oligomeric compound): 31%; % cells in cell cycle phase: G2/M (HeLa cells; 150 nM oligomeric compound): 334%; % cells in cell cycle phase: S (HeLa cells; 150 nM oligomeric compound): 78%; % cells in cell cycle phase: aneuploid (HeLa cells; 150 nM oligomeric compound): 171%; % cells in cell cycle phase: subG1 (HeLa cells; 150 nM oligomeric compound): 1774%; % cells in cell cycle phase G1 (T47Dp53 cells): 130%; % cells in cell cycle phase G2/M (T47Dp53 cells): 101%; % cells in cell cycle phase S (T47Dp53 cells): 59%; % cells in cell cycle phase aneuploid (T47Dp53 cells): 100%; % cells in cell cycle phase subG1 (T47Dp53 cells): 90%
"AACCGATTTCAGATGGTGCTAG (anti-miR; chemistry not fully specified) [ISIS 327928, uniform 2′-MOE PS; targets mir-29a-1]",,,,,,,,,,,,,,,,,,,,,tube formation (HuVECs): suppressed tube formation; five markers of adipocyte differentiation [1]: reduce the expression levels of all five markers of adipocyte differentiation
"345395 (AAGGGATTCCTGGGAAAACTGGAC; sugars from the 5' end e5 d10 e9, all phosphorothioate, methylation of C not given here) [compound 345395]",108%,95%,96%,139%,87%,,,,,,100%,104%,97%,115%,132%,106%,115%,87%,150%,147%,% cells aneuploid (HeLa cells; [3]): 77%; % cells in cell cycle phase G1 (HeLa cells; [3]): 54%; % cells in cell cycle phase G2/M (HeLa cells; [3]): 222%; % cells in cell cycle phase S (HeLa cells; [3]): 82%; % cells in cell cycle phase subG1 (HeLa cells; [3]): 247%; % cells in cell cycle phase: G1 (HeLa cells; 150 nM oligomeric compound): 51%; % cells in cell cycle phase: G2/M (HeLa cells; 150 nM oligomeric compound): 157%; % cells in cell cycle phase: S (HeLa cells; 150 nM oligomeric compound): 192%; % cells in cell cycle phase: aneuploid (HeLa cells; 150 nM oligomeric compound): 87%; % cells in cell cycle phase: subG1 (HeLa cells; 150 nM oligomeric compound): 213%
"ISIS 328744: SEQ ID NO: 653, targeting mir-182 (e[5mC]*eG*eG*eA*eT*d[5mC]*d[5mC]*dT*dG*dT*dT*dA*d[5mC]*d[5mC]*dT*e[5mC]*eA*e[5mC]*e[5mC]*eA)",,,,,,,,,,,,,,,,,,,,,"phase of the cell cycle in which cells arrest or delay (HeLa cells; HeLa, 150 nM, 48 hours): increase in the percentage of cells in the G2/M-phase of the cell cycle as well as in the subG1 category; effect on cell cycling (BJ cells): not affected; effect on cell cycling (T47Dp53 cells): not affected"
